# “Also recorded” adds a separate entry of the source.
# Key:
# [1] = target: T1, BTK (Homo sapiens, UniProt Q06187); test: Intracellular total BTK protein in peripheral blood B lymphocytes of healthy volunteers (flow cytometry); assay type: in vivo
# Method: The percentage of pre-study BTK protein level was determined in cryopreserved B cells by flow cytometry analysis of Mean Fluorescence Intensity.
# [2] = target: T1, BTK; test: Per cell BTK protein level in CD19+/CD5+ CLL tumor cells (flow cytometry); assay type: in vivo; details: 100 mg BID, after 4 weeks of treatment
# Method: Peripheral blood samples were obtained and BTK protein levels were evaluated in CD19+/CD5+ tumor cells by flow cytometry.
# [3] = tested on: anti-KLH IgM and IgG antibody response; test: T cell dependent antibody response (TDAR) to KLH in rats; assay type: in vivo, rat; details: 1, 2.5 and 5 mg/kg/day oral gavage, KLH on Day 50
# Method: Rats were treated with oral gavage administration of vehicle or Formula (II) at doses of 1, 2.5 and 5 mg/kg/day for 91 days. Sixteen rats per gender were evaluated for development of T cell dependent antibody response (TDAR), with primary immunization on Day 50 with keyhole limpet hemocyanin (KLH) by subcutaneous injection. Dosing continued and on Days 57, 64, and 71, blood samples were collected via the sublingual vein into tubes without anticoagulant and allowed to clot at room temperature for at least 30 minutes, then the serum was divided into 4 approximately equal aliquots and stored frozen at approximately −60 to −90° C. Anti-KLH IgM and IgG antibody levels were determined using an enzyme-linked immunosorbent assay (ELISA). FIG. 41A, FIG. 41B, FIG. 41C, FIG. 41D, FIG. 41E, FIG. 41F, FIG. 42A, FIG. 42B, FIG. 42C, FIG. 42D, FIG. 42E, and FIG. 42F illustrate the trends in anti-KLH antibody responses among male and female rats.
# [4] = tested on: MDA-MB-231 tumor cells; test: Osteolytic bone lesions after intratibial MDA-MB-231 tumor inoculation in nude rats; assay type: in vivo, rat; parameters: mean visual lysis score: scale not given here; mean left tibial density: unit not given here
# Method: FIG. 40A, FIG. 40B, FIG. 40C, FIG. 40D, FIG. 40E, FIG. 40F, and FIG. 40G illustrate the bone density in hind limbs of nude rats (n=6 per group) implanted with intratibial MDA-MB231 tumor […] and treated for up to 41 days with vehicle control, zoledronate (active control) or varying doses of Formula (II). Oral gavage administration of Formula (II) was scheduled as 3 days of initial QD dosing, followed by 30 days of BID dosing at the following dose levels: 3/3, 30/30, and 180/90 mg/kg/day. An untreated group of rats, without tibial implants (n=3) represents bone density of concurrently obtained normal rat tibial images. Statistical significance was determined by two-way ANOVA-Dunnett: ns=not significant, *=P<0.05, **=P<0.01, ***=P<0.001, versus Group 1.
# Rats were inoculated with MDA-MB-231 tumor cells on Day 1, baseline radiographs were taken on Day 2, and treatment with Formula (II) began on Day 8. Radiographs were taken on Days 10, 17, 24, 31, 38, and 41. Anti-osteolytic activities were determined from differences in bone density and visual lysis scores between the drug-treated and vehicle-treated groups on each observation day, and also from changes in bone density and visual lysis scores in tumor-inoculated left tibias at baseline (Day 2) compared to Days 10, 17, 24,31, 38, and 41.
# Radiographs were blinded for both analyses. […] Visual osteolysis was not detected in any rat in the nave group. The 4% increase in mean bone density from baseline to study end presumably reflected normal growth in these rats.
# [5] = tested on: B cell receptor (BCR); test: Ex vivo anti-IgM induced CD86 and CD69 expression on splenocyte B cells after oral dosing of mice; assay type: in vivo; details: Mus musculus, single oral 25 mg/kg, 3-24 hours, read-out: CD86 % inhibition over the entire time course
# [6] = 180 QD/90 BID mg/kg (Group 5), Day 31
# [7] = 180 QD/90 BID mg/kg (Group 5), Day 41
# T1 sequence (Q06187 whole entry): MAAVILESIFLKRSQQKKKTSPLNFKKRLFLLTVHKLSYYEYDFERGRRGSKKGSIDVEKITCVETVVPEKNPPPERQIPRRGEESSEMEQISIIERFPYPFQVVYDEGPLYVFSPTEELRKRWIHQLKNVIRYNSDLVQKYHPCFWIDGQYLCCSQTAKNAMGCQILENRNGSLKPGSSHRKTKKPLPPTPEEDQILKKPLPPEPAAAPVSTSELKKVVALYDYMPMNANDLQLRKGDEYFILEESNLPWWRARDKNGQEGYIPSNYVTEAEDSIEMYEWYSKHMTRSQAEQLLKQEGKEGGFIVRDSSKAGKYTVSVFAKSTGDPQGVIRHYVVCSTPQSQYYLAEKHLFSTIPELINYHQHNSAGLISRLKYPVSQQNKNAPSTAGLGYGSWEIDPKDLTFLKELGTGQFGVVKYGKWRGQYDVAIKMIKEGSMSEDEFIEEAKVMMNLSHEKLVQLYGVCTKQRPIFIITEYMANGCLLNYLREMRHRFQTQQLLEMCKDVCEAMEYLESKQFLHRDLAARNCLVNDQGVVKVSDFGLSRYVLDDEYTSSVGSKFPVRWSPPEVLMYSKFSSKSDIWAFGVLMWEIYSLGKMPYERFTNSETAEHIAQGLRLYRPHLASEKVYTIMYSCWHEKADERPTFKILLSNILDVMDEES
structure (smiles),measurement,setting,value
"CC#CC(=O)N1CCC[C@H]1c1nc(-c2ccc(C(=O)Nc3ccccn3)cc2)c2c(N)nccn12 [Formula (II), (S)-4-(8-amino-3-(1-(but-2-ynoyl)pyrrolidin-2-yl)imidazo[1,5-a]pyrazin-1-yl)-N-(pyridin-2-yl)benzamide]",intracellular total BTK protein level in B lymphocytes,"[1]; 15 mg QD x 7 days, after 48 hours (between Day 2 and Day 3)",Decreased BTK levels; also recorded: decrease
same,intracellular total BTK protein level in B lymphocytes,"[1]; 15 mg QD, after the initial dose",increased
same,"decrease in BTK protein expression per cell (median, of pre-dose values)",[2],26%
same,anti-KLH IgM and IgG production,[3],significant pharmacological effects on the magnitude of IgM and IgG production
same,left tibial bone density compared to vehicle controls,"[4]; 3 or 30 mg/kg, any observation day excluding Day 24 for 30 mg/kg",no significant differences
same,left intratibial densities compared to control Group 1,[4]; 180 QD/90 BID mg/kg (Group 5),"significantly greater compared to control Group 1 on Day 31, but not Day 41"
same,mean left tibial density,"[4]; 180 QD/90 BID mg/kg (Group 5), Day 2 baseline",201.4±0.6
same,decrease in mean left tibial density,"[4]; 180 QD/90 BID mg/kg (Group 5), Day 2 to Days 31 and 41",1-2%
same,mean left tibial density,[4]; [6],199.1±0.6
same,mean visual lysis score,[4]; [6],1.2
same,mean left tibial density,[4]; [7],197.2±0.6
same,mean visual lysis score,[4]; [7],1.5
same,rats that never developed visible left tibial lesions,"[4]; 180 QD/90 BID mg/kg (Group 5), n=6",Two rats
same,inhibition at 25 mg/kg,[5],67.9%
